Columns and labels:
[1] = in vivo; cited from earlier work
[2] = Relative water solubility of the steroids; type: physicochemical

Compound | eyes with increase in brown pigment in the iris [1] | water solubility relative to beclomethasone dipropionate (times more soluble) [2]
CC(C)OC(=O)CCC/C=C\C[C@@H]1[C@@H](CC[C@@H](O)CCc2ccccc2)[C@H](O)C[C@@H]1O [latanoprost] | 5-15 % of human eyes | –
CC1(C)O[C@@H]2C[C@H]3[C@@H]4CCC5=CC(=O)C=C[C@]5(C)[C@@]4(F)[C@@H](O)C[C@]3(C)[C@]2(C(=O)CO)O1 [triamcinolone acetonide] | – | about 150 times
